Ten molecules from patent US6872720B2 (dated 2005) can be followed below.

The term melting point denotes the temperature of the solid-liquid transition. Take `Cc1nnc(-c2ccccc2F)n2nc(OCc3ncn(C)n3)c(-c3ccsc3)c12`: the melting point was in the range of 214 to 217 °C.

Molecule `Cc1nnc(-c2ccc(F)cc2)n2nc(OCc3ncnn3C)c(-c3ccsc3)c12` registered a melting point of 171 to 177 °C.

On to `CCn1ncnc1COc1nn2c(-c3ccccc3)nnc(C)c2c1C1CCCC1`, for which the melting point stood at 112 °C.

Turning to `CCn1ncnc1COc1nn2c(-c3cc(F)ccc3F)nnc(C)c2c1C(C)(C)C`, the melting point amounted to 109 °C.

Regarding `Cc1nnc(-c2ccc(F)cc2F)n2nc(OCc3ncnn3C)c(-c3ccsc3)c12`, the melting point lay within 144 to 146 °C.

Consider `Cc1nnc(-c2ccccc2F)n2nc(OCc3ncnn3C)c(-c3ccsc3)c12`, for which the melting point was 124 to 129 °C.

`Cc1nnc(-c2ccccc2F)n2nc(OCc3ncnn3C)c(-c3ccoc3)c12` yielded a melting point of 150 to 153 °C.

As for `Cc1nnc(-c2ccccc2)n2nc(OCc3ncnn3C)c(C3CCCC3)c12`, the melting point worked out at 159 °C.

For the molecule `CCn1ncnc1COc1nn2c(-c3ccccc3F)nnc(C)c2c1C1CCCC1`, the melting point was 105 °C.

On to `Cc1nnc(-c2ccccc2F)n2nc(OCc3ncnn3C)c(C3CCCC3)c12`, for which the melting point was 123 °C.
